PubChem BioAssay (NCI)
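Where inhibition never reached the appropriate level, the endpoint shown equals the highest concentration tested. Otherwise, values were interpolated linearly from a five-concentration, 48-hour dose response in 96-well plates. TGI marks complete inhibition of growth.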

Assays:
Assay in all cases: DTP human tumour cell line panel, 48 h
HS 578T breast = tested on: HS 578T breast
UO-31 renal = tested on: UO-31 renal
OVCAR-3 ovarian = tested on: OVCAR-3 ovarian
SW-620 colon = tested on: SW-620 colon
SK-MEL-28 melanoma = tested on: SK-MEL-28 melanoma
SK-MEL-5 melanoma = tested on: SK-MEL-5 melanoma
MDA-MB-231 breast = tested on: MDA-MB-231 breast
SN12C renal = tested on: SN12C renal
CCRF-CEM leukemia = tested on: CCRF-CEM leukemia
SK-OV-3 ovarian = tested on: SK-OV-3 ovarian
HL-60(TB) leukemia = tested on: HL-60(TB) leukemia
A549 NSCLC = tested on: A549 NSCLC
MDA-MB-435 = tested on: MDA-MB-435
U251 CNS = tested on: U251 CNS
SF-295 CNS = tested on: SF-295 CNS
M14 melanoma = tested on: M14 melanoma
OVCAR-8 ovarian = tested on: OVCAR-8 ovarian
HOP-92 NSCLC = tested on: HOP-92 NSCLC
MCF7 breast = tested on: MCF7 breast
LOX IMVI melanoma = tested on: LOX IMVI melanoma
SF-268 CNS = tested on: SF-268 CNS
MOLT-4 leukemia = tested on: MOLT-4 leukemia
A498 renal = tested on: A498 renal
HOP-62 NSCLC = tested on: HOP-62 NSCLC
SR leukemia = tested on: SR leukemia
786-0 renal = tested on: 786-0 renal
COLO 205 colon = tested on: COLO 205 colon
K-562 leukemia = tested on: K-562 leukemia
DU-145 prostate = tested on: DU-145 prostate
T-47D breast = tested on: T-47D breast
NCI-H23 lung = tested on: NCI-H23 lung
NCI-H226 lung = tested on: NCI-H226 lung
EKVX NSCLC = tested on: EKVX NSCLC
CAKI-1 renal = tested on: CAKI-1 renal
OVCAR-4 ovarian = tested on: OVCAR-4 ovarian
RXF 393 renal = tested on: RXF 393 renal
IGROV1 ovarian = tested on: IGROV1 ovarian
SF-539 CNS = tested on: SF-539 CNS
MDA-N = tested on: MDA-N
ACHN renal = tested on: ACHN renal
HCT-116 colon = tested on: HCT-116 colon
RPMI-8226 leukemia = tested on: RPMI-8226 leukemia
SNB-19 CNS = tested on: SNB-19 CNS
MALME-3M melanoma = tested on: MALME-3M melanoma
PC-3 prostate = tested on: PC-3 prostate
HCT-15 colon = tested on: HCT-15 colon
NCI-H460 lung = tested on: NCI-H460 lung
BT-549 breast = tested on: BT-549 breast
NCI/ADR-RES ovarian = tested on: NCI/ADR-RES ovarian
TK-10 renal = tested on: TK-10 renal
HCC-2998 colon = tested on: HCC-2998 colon
HT29 colon = tested on: HT29 colon
UACC-62 melanoma = tested on: UACC-62 melanoma
KM12 colon = tested on: KM12 colon
SNB-75 CNS = tested on: SNB-75 CNS
OVCAR-5 ovarian = tested on: OVCAR-5 ovarian
SK-MEL-2 melanoma = tested on: SK-MEL-2 melanoma
UACC-257 melanoma = tested on: UACC-257 melanoma
NCI-H522 lung = tested on: NCI-H522 lung

Measured: TGI

COP(=O)(OC)C(NC=O)P(=O)(OC)OC
not listed: KM12 colon | SNB-75 CNS | OVCAR-5 ovarian | SK-MEL-2 melanoma | UACC-257 melanoma | NCI-H522 lung
> 100 µM: all other assays above

CCN(CC)C(=O)COc1cc2c(O)c3c(O)c(C)c4c(c13)C(=O)C(C)(OC=CC(OC)C(C)C(OC(C)=O)C(C)C(O)C(C)C(O)C(C)C=CC=C(C)C(=O)N2)O4 (stereo not given)
not listed: HL-60(TB) leukemia | MDA-MB-435 | COLO 205 colon | SF-539 CNS | NCI-H522 lung
> 100 µM: all other assays above

COc1cc2c(c(OC)c1OC)-c1c(cc3c(c1OC)OCO3)CC(C)C(C)(O)C2OC(=O)c1ccccc1 (stereo not given)
86.2 µM: RXF 393 renal
48.7 µM: HL-60(TB) leukemia
55.9 µM: SR leukemia
87.3 µM: UO-31 renal
79.3 µM: RPMI-8226 leukemia
53.5 µM: COLO 205 colon
75.6 µM: HT29 colon
73.7 µM: HOP-92 NSCLC
80.5 µM: SK-MEL-2 melanoma
57.8 µM: MDA-MB-231 breast
29.3 µM: MOLT-4 leukemia
63.9 µM: CCRF-CEM leukemia
not listed: NCI/ADR-RES ovarian
> 100 µM: all other assays above

COC(=O)/C=C/c1cc(OC)c2oc(-c3ccc(OC)c(OC)c3)c(C(=O)OC)c2c1
not listed: HOP-62 NSCLC | NCI-H226 lung | RXF 393 renal | SF-539 CNS | HCT-116 colon | SNB-75 CNS | NCI-H522 lung
> 100 µM: all other assays above

CC1=C[C@@H](C)C[C@]2(C)CC[C@H](O2)[C@]23CC[C@](C)(C[C@H](O2)[C@@H]2O[C@@](C)(CC2=O)[C@@H](O)[C@H]2CC[C@@]4(CCC[C@@H](O4)[C@H](C)C(=O)O[C@H]4C[C@H]([C@]5(O)OCC[C@H](C)[C@@H]5O)O[C@H]4C=C1)O2)O3
0.00503 µM: SF-539 CNS
0.0231 µM: UO-31 renal
0.00916 µM: HOP-62 NSCLC
0.128 µM: EKVX NSCLC
0.0277 µM: TK-10 renal
> 5.25 µM: ACHN renal
0.0212 µM: SK-MEL-5 melanoma
0.238 µM: MDA-MB-231 breast
0.0826 µM: NCI-H23 lung
0.0219 µM: SF-268 CNS
0.00747 µM: RXF 393 renal
0.00517 µM: HOP-92 NSCLC
0.181 µM: 786-0 renal
0.00188 µM: COLO 205 colon
0.0233 µM: SK-MEL-28 melanoma
0.005 µM: A498 renal
0.0103 µM: BT-549 breast
0.02 µM: OVCAR-3 ovarian
0.00214 µM: HS 578T breast
0.0154 µM: IGROV1 ovarian
0.00515 µM: CAKI-1 renal
not listed: SN12C renal | CCRF-CEM leukemia | SK-OV-3 ovarian | MDA-MB-435 | SF-295 CNS | M14 melanoma | NCI-H226 lung | OVCAR-4 ovarian | HCT-116 colon | RPMI-8226 leukemia | SNB-19 CNS | MALME-3M melanoma | PC-3 prostate | UACC-62 melanoma | SNB-75 CNS | UACC-257 melanoma
> 10 µM: all other assays above

Cc1cc(C)c2c(=N)c3ccccc3n(CCCCCCO)c2n1
18.9 µM: SNB-19 CNS
23.6 µM: HOP-62 NSCLC
6.01 µM: UO-31 renal
26.9 µM: A498 renal
5.49 µM: OVCAR-8 ovarian
8.56 µM: MCF7 breast
25.9 µM: OVCAR-3 ovarian
8.89 µM: UACC-62 melanoma
16.7 µM: MDA-MB-435
11.1 µM: NCI-H226 lung
23.7 µM: BT-549 breast
16.6 µM: M14 melanoma
6.33 µM: EKVX NSCLC
7.42 µM: MDA-N
13.9 µM: SF-268 CNS
6.69 µM: NCI-H23 lung
13.8 µM: U251 CNS
5.95 µM: MALME-3M melanoma
9.85 µM: OVCAR-4 ovarian
14.2 µM: RXF 393 renal
9.47 µM: SK-MEL-2 melanoma
3.93 µM: HT29 colon
15.1 µM: MDA-MB-231 breast
8.16 µM: SK-MEL-5 melanoma
17.7 µM: A549 NSCLC
4.29 µM: RPMI-8226 leukemia
7.55 µM: SN12C renal
21.2 µM: OVCAR-5 ovarian
3.14 µM: NCI-H522 lung
9.53 µM: 786-0 renal
25.3 µM: DU-145 prostate
8.31 µM: CAKI-1 renal
16 µM: HOP-92 NSCLC
9.64 µM: CCRF-CEM leukemia
33 µM: SK-MEL-28 melanoma
17.6 µM: MOLT-4 leukemia
2.84 µM: COLO 205 colon
11.9 µM: SF-295 CNS | PC-3 prostate
18.5 µM: SK-OV-3 ovarian
3.62 µM: NCI-H460 lung
8.38 µM: NCI/ADR-RES ovarian
10.9 µM: IGROV1 ovarian
8.37 µM: HS 578T breast
> 36.1 µM: SW-620 colon
6.81 µM: ACHN renal
9.69 µM: HCT-15 colon
15.8 µM: UACC-257 melanoma
5.17 µM: LOX IMVI melanoma
7.07 µM: HCC-2998 colon
9.48 µM: SF-539 CNS
5.78 µM: SNB-75 CNS
17.9 µM: TK-10 renal
6.19 µM: HL-60(TB) leukemia
13.5 µM: KM12 colon
12.1 µM: T-47D breast

COc1cc(C(c2cccc3ccccc23)N2C(=O)CCC2C(=O)NCc2ccccc2)cc(OC)c1OC (stereo not given)
not listed: K-562 leukemia | ACHN renal | PC-3 prostate | TK-10 renal | SNB-75 CNS
> 100 µM: all other assays above
